In patent publication US10508120B2, “TYK2 inhibitors and uses thereof” (Nimbus Lakshmi, Inc., priority 2017, dated 2019) one finds Kd and inhibition data, which are given here for 40 molecules.

Assay [1] addresses human TYK2 (JH2domain-pseudokinase) (Homo sapiens (Human), UniProt P29597). The assay is described as follows: TYK2 JH2 Domain Binding Assay (KINOMEscan). The essentials: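 Pseudokinase domain binding was measured by qPCR of tagged, bead-retained kinase after 1 h room-temperature competition, with 0.9% DMSO and compound up to 30,000 nM in 3-fold steps. Hill-equation Kd, duplicate.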

Assay [2] has as its target Tyk2 kinase domain (DH1) (Homo sapiens (Human), UniProt P29597). The experiment in a line: Tyk2 Radioactive Kinase Assay. It is filed as biochemical. The settings on record: compound at 10 μM; ATP 10 μM; read-out: Tyk2 JH1% Inhibition @ 10 μM. The essentials: (§1)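 Compounds were tested at a single concentration of 10 μM in a radiometric kinase format against each isolated kinase domain. Activity is reported as percent inhibition at that concentration.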

Assay [3] concerns the target JAK2 kinase domain (JH1) (Homo sapiens (Human), UniProt O60674). The experiment in a line: JAK2 Radioactive Kinase Assay. It is filed as biochemical. The settings on record: compound at 10 μM; ATP 10 μM; read-out: JAK2 JH1% Inhibition @ 10 μM. In a few lines:
as §1

human TYK2 (JH2domain-pseudokinase), sequence (P29597 556-888): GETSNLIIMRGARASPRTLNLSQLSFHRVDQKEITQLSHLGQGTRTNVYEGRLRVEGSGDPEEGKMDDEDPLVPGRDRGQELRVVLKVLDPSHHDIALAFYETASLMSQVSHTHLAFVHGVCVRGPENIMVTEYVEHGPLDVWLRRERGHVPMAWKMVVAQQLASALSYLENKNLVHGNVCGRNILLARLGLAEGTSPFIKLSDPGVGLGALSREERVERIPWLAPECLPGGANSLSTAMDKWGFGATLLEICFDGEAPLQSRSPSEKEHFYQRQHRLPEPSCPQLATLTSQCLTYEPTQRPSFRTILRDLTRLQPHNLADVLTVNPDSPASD
JAK2 kinase domain (JH1), sequence (O60674 849-1124): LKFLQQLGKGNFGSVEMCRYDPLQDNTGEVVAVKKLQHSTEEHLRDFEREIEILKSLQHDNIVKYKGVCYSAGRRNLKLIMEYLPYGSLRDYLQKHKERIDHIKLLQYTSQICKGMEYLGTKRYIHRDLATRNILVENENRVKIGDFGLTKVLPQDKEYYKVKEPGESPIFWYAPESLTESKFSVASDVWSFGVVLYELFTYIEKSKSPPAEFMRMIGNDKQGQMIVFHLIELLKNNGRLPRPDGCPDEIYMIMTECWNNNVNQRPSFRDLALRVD
Tyk2 kinase domain (DH1), sequence (P29597 897-1176): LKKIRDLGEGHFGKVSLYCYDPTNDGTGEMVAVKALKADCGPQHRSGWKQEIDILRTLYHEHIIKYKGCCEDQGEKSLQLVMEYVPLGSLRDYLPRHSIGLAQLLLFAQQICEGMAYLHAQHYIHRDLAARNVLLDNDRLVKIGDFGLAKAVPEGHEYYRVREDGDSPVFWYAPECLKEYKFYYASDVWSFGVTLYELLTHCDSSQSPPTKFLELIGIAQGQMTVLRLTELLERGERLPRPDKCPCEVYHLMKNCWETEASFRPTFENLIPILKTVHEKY

For the molecule `CNc1cc(Nc2cc(C)cnc2OC(C)C)nc2c(C(=O)NC3CCC3)cnn12` [I-213], the Kd – broadly, the free concentration of one partner at which half of the binding sites on the other are occupied at equilibrium, for simple one-to-one binding – in assay [1] was in the range of 1 to 10 nM. In addition, the inhibition at 10 µM in assay [2] and in assay [3] was < 50% in each case.

`CNc1cc(Nc2cc(C)cnc2OC(C)C)nc2c(C(=O)N[C@H]3C[C@H]3F)cnn12` [I-214]: the Kd in assay [1] was < 0.2 nM. Also, the inhibition at 10 µM in assay [2] and in assay [3] was < 50% in each case.

As for `CNc1cc(Nc2cccnc2OCCOC)nc2c(C(=O)NC3CC3)cnn12` [I-218], the Kd in assay [1] was < 0.2 nM. Also, the inhibition at 10 µM in assay [2] and in assay [3] was < 50% in each case.

On to `CNc1cc(Nc2cccnc2OC2CCCCC2)nc2c(C(=O)NC3CC3)cnn12` [I-221], for which the Kd in assay [1] lay in the range of 1 to 10 nM. Further, the inhibition at 10 µM in assay [2] and in assay [3] was < 50% each time.

`CNc1cc(Nc2cccnc2OC2CCCCC2)nc2c(C(=O)NC3CCC3)cnn12` [I-226] had a Kd in assay [1] of 1 to 10 nM. The inhibition at 10 µM in assay [2] and in assay [3] was < 50% throughout.

Consider `CNc1cc(Nc2cccnc2OC2CCCCC2)nc2c(C(=O)N[C@H]3C[C@H]3F)cnn12` [I-227], for which the Kd in assay [1] is 0.2 to 1 nM. The inhibition at 10 µM in assay [2] and in assay [3] was < 50% in each case.

Molecule `CNc1cc(Nc2cccnc2OC2COC2)nc2c(C(=O)NC3CC3)cnn12` [I-228] came in with a Kd in assay [1] of 1 to 10 nM. The inhibition at 10 µM in assay [2] and in assay [3] was < 50% each time.

For `CNc1cc(Nc2cccn(C3CCN(CC(F)F)CC3)c2=O)nc2c(C(=O)N[C@H]3C[C@H]3F)cnn12` [I-230], the Kd in assay [1] was in the range of 0.2 to 1 nM. Also, the inhibition at 10 µM in assay [2] and in assay [3] was < 50% each time.

Consider `CNc1cc(Nc2cccnc2O[C@H]2CC[C@H](O)CC2)nc2c(C(=O)NC3CC3)cnn12` [I-231], for which the Kd in assay [1] was 0.2 to 1 nM. Also, the inhibition at 10 µM in assay [2] and in assay [3] was < 50% throughout.

Take `CNc1cc(Nc2cccnc2O[C@H]2CC[C@H](O)CC2)nc2c(C(=O)NC3CCC3)cnn12` [I-232]: in assay [1], the Kd is < 0.2 nM. The inhibition at 10 µM in assay [2] and in assay [3] was < 50% each time.

In the case of `CNc1cc(Nc2cccn(-c3cccc(C)n3)c2=O)nc2c(C(=O)NC3CC3)cnn12` [I-237], in assay [1], the Kd is < 0.2 nM. For the same molecule, the inhibition at 10 µM in assay [2] and in assay [3] was < 50% each time.

As for `CNc1cc(Nc2cccnc2O[C@H]2CC[C@H](O)CC2)nc2c(C(=O)N[C@H]3C[C@H]3F)cnn12` [I-239], in assay [1], the Kd is < 0.2 nM. In addition, the inhibition at 10 µM in assay [2] and in assay [3] was < 50% throughout.

Take `CNc1cc(Nc2cccn(-c3ccc(C4CC4)nn3)c2=O)nc2c(C(=O)NC3CC3)cnn12` [I-241]: the Kd in assay [1] is < 0.2 nM. For the same molecule, the inhibition at 10 µM in assay [2] and in assay [3] was < 50% throughout.

As for `CNc1cc(Nc2cccn(-c3nccs3)c2=O)nc2c(C(=O)NC3CCC3)cnn12` [I-242], the Kd in assay [1] was < 0.2 nM. In addition, the inhibition at 10 µM in assay [2] and in assay [3] was < 50% in each case.

For `CNc1cc(Nc2cccn(-c3ccc(F)cc3)c2=O)nc2c(C(=O)NCC(C)(C)CO)cnn12` [I-245], in assay [1], the Kd is < 0.2 nM. In addition, the inhibition at 10 µM in assay [2] and in assay [3] was < 50% in each case.

Turning to `CNc1cc(Nc2cccnc2O[C@H]2CC[C@H](OC)CC2)nc2c(C(=O)NC3CC3)cnn12` [I-247], the equilibrium dissociation constant (Kd) in assay [1] was in the range of 0.2 to 1 nM. Also, the inhibition at 10 µM in assay [2] and in assay [3] was < 50% each time.

Regarding `CNc1cc(Nc2cccnc2O[C@H]2CC[C@H](OC)CC2)nc2c(C(=O)NC3CCC3)cnn12` [I-248], the Kd in assay [1] is 0.2 to 1 nM. Moreover, the inhibition at 10 µM in assay [2] and in assay [3] was < 50% in each case.

For the molecule `CNc1cc(Nc2cccnc2O[C@H]2CC[C@H](OC)CC2)nc2c(C(=O)N[C@H]3C[C@H]3F)cnn12` [I-249], the Kd in assay [1] is < 0.2 nM. The inhibition at 10 µM in assay [2] and in assay [3] was < 50% each time.

Consider `CNc1cc(Nc2cc(C)cn(-c3ccn(C)n3)c2=O)nc2c(C(=O)NC3CCC3)cnn12` [I-251], for which the Kd in assay [1] was < 0.2 nM. In addition, the inhibition at 10 µM in assay [2] and in assay [3] was < 50% throughout.

As to `CNc1cc(-c2cn(C(C)C)c3ncc(C)cc23)nc2c(C(=O)NC3CC3)cnn12` [I-252], the Kd in assay [1] lay in the range of 1 to 10 nM. The inhibition at 10 µM in assay [2] and in assay [3] was < 50% each time.

Take `CNc1cc(-c2cn(C(C)C)c3ncc(Cl)cc23)nc2c(C(=O)NC3CC3)cnn12` [I-253, 5-(5-chloro-1-isopropyl-1H-pyrrolo[2,3-b]pyridin-3-yl)-N-cyclopropyl-7-(methylamino)pyrazolo[1,5-a]pyrimidine-3-carboxamide]: in assay [1], the Kd fell in the range of 0.2 to 1 nM. The inhibition at 10 µM in assay [2] and in assay [3] was < 50% in each case.

In turn, `CNc1cc(-c2cn(C(C)C)c3ncc(C)cc23)nc2c(C(=O)NC3CCC3)cnn12` [I-256] gave a Kd in assay [1] of 0.2 to 1 nM. Further, the inhibition at 10 µM in assay [2] and in assay [3] was < 50% in each case.

`CNc1cc(-c2cn(C(C)C)c3ncc(C)cc23)nc2c(C(=O)N[C@H]3C[C@H]3F)cnn12` [I-257]: in assay [1], the Kd lay within 0.2 to 1 nM. The inhibition at 10 µM in assay [2] and in assay [3] was < 50% in each case.

For the molecule `[2H]C([2H])([2H])Oc1ncc(C)cc1Nc1cc(NC)n2ncc(C(=O)NC3CCC3)c2n1` [I-260, N-cyclobutyl-5-((2-(methoxy-d3)-5-methylpyridin-3-yl)amino)-7-(methylamino)pyrazolo[1,5-a]pyrimidine-3-carboxamide], the Kd in assay [1] lay within 0.2 to 1 nM. The inhibition at 10 µM in assay [2] and in assay [3] was < 50% throughout.

`CNc1cc(Nc2cccn(-c3ccc(OC)cn3)c2=O)nc2c(C(=O)NC3CC3)cnn12` [I-264]: the dissociation constant (Kd) in assay [1] was 0.2 to 1 nM. The inhibition at 10 µM in assay [2] and in assay [3] was < 50% throughout.

For `CNc1cc(Nc2cccn(CCOC)c2=O)nc2c(C(=O)NC3CC3)cnn12` [I-267], the Kd in assay [1] was < 0.2 nM. Besides, the inhibition at 10 µM in assay [2] and in assay [3] was < 50% each time.

`CNc1cc(Nc2cccn(CCOC)c2=O)nc2c(C(=O)N[C@H]3C[C@H]3F)cnn12` [I-268]: the Kd in assay [1] is < 0.2 nM. Besides, the inhibition at 10 µM in assay [2] and in assay [3] was < 50% in each case.

In turn, `CNc1cc(Nc2cc(C)cnc2OC)nc2c(C(=O)NCC(C)(C)CO)cnn12` [I-270] yielded a Kd in assay [1] of 0.2 to 1 nM. Also, the inhibition at 10 µM in assay [2] and in assay [3] was < 50% in each case.

Regarding `CNc1cc(Nc2cc(C)cn(-c3ccn(C)n3)c2=O)nc2c(C(=O)NC3CC3)cnn12` [I-271], the Kd in assay [1] was 0.2 to 1 nM. The inhibition at 10 µM in assay [2] and in assay [3] was < 50% throughout.

In the case of `CNc1cc(-c2cn(C(C)C)c3ncc(Cl)cc23)nc2c(C(=O)NC3CCC3)cnn12` [I-273, 5-(5-chloro-1-isopropyl-1H-pyrrolo[2,3-b]pyridin-3-yl)-N-cyclobutyl-7-(methylamino)pyrazolo[1,5-a]pyrimidine-3-carboamide], the Kd in assay [1] is 1 to 10 nM. In addition, the inhibition at 10 µM in assay [2] and in assay [3] was < 50% each time.

In turn, `CNc1cc(Nc2cc(C)cnc2OC2CC2)nc2c(C(=O)NC3CCC3)cnn12` [I-278] came in with a Kd in assay [1] of 0.2 to 1 nM. Moreover, the inhibition at 10 µM in assay [2] and in assay [3] was < 50% throughout.

Consider `CNc1cc(Nc2cc(C)cnc2OC2CC2)nc2c(C(=O)N[C@H]3C[C@H]3F)cnn12` [I-279], for which, in assay [1], the Kd is < 0.2 nM. In addition, the inhibition at 10 µM in assay [2] and in assay [3] was < 50% throughout.

Regarding `CNc1cc(Nc2cc(C)cnc2OCCOC)nc2c(C(=O)N[C@H]3C[C@H]3F)cnn12` [I-280], in assay [1], the Kd is < 0.2 nM. For the same molecule, the inhibition at 10 µM in assay [2] and in assay [3] was < 50% throughout.

In assay [1], `CNc1cc(Nc2cc(F)cnc2OCCOC)nc2c(C(=O)NC3CC3)cnn12` [I-286] returned a Kd of 0.2 to 1 nM. Further, the inhibition at 10 µM in assay [2] and in assay [3] was < 50% each time.

In the case of `CNc1cc(Nc2cc(C)c(=O)n(-c3cnn(C)c3)c2)nc2c(C(N)=O)cnn12` [I-287, 5-((5-methyl-1-(1-methyl-1H-pyrazol-4-yl)-6-oxo-1,6-dihydropyridin-3-yl)amino)-7-(methylamino)pyrazolo[1,5-a]pyrimidine-3-carboxamide], in assay [1], the Kd lay in the range of 1 to 10 nM. The inhibition at 10 µM in assay [2] and in assay [3] was < 50% each time.

For `[2H]C([2H])([2H])Oc1ncc(F)cc1Nc1cc(NC)n2ncc(C(=O)N[C@H]3C[C@H]3F)c2n1` [I-289], the Kd in assay [1] was < 0.2 nM. For the same molecule, the inhibition at 10 µM in assay [2] and in assay [3] was < 50% in each case.

`CNc1cc(Nc2cccn(-c3nc(C)c(C)s3)c2=O)nc2c(C(=O)NC3CC3)cnn12` [I-291] yielded a Kd in assay [1] of 0.2 to 1 nM. Also, the inhibition at 10 µM in assay [2] and in assay [3] was < 50% in each case.

In turn, `CNc1cc(Nc2cccn(-c3nc(C)c(C)s3)c2=O)nc2c(C(=O)NC3CCC3)cnn12` [I-293] displayed a Kd in assay [1] of 0.2 to 1 nM. In addition, the inhibition at 10 µM in assay [2] and in assay [3] was < 50% in each case.

Consider `CNc1cc(Nc2cccnc2C(C)(F)F)nc2c(C(=O)NC3CC3)cnn12` [I-297], for which the Kd in assay [1] was in the range of 0.2 to 1 nM. Besides, the inhibition at 10 µM in assay [2] and in assay [3] was < 50% each time.

On to `CNc1cc(Nc2cccnc2OC2COC2)nc2c(C(=O)NC3CCC3)cnn12` [I-298], for which, in assay [1], the equilibrium dissociation constant (Kd) is 1 to 10 nM. Further, the inhibition at 10 µM in assay [2] and in assay [3] was < 50% throughout.
